From patent US9938301B2, “Dihydropyrimido fused ring derivative as HBV inhibitor” (QILU PHARMACEUTICAL CO., LTD., priority 2014, dated 2018)

What follows are molecules tested on HBV DNA in HepG2.2.15 cells (assay: HBV in vitro dot-blot hybridization test). Details: Hepatitis B virus, HepG2.2.15, dot-blot hybridization assay, read-out: Concentration for 50% inhibition of HBV (EC50)value.
Format: cell-based, Hepatitis B virus
Protocol: • 1. Purpose of the test: • The content of HBV DNA in HepG2.2.15 cells was detected by dot-blot hybridization test to evaluate an inhibitory action of the compound on HBV with an EC50 value as an indicator. • 2. Experimental materials: • 2.1 Cell lines: HepG2.2.15 Cells • HepG2.2.15 cell culture media (DMEM/F12, Invitrogen-11330057; 10% serum Invitrogen-10099141; 100 units/mL Penicillin and 10 μg/mL Streptomycin, Invitrogen-15140122; 1% non-essential amino acid, Invitrogen-11140076; 2 mM L-GLUTAMINE, Invitrogen-25030081; 300 µg/ml Geneticin, Invitrogen-10131027 • 2.2 Reagents: • Trypsin (I Invitrogen-25300062) • DPBS (Hyclone-SH30028.01B) • DMSO (Sigma-D2650-100ML) • 96-well cell-culture plate (Corning-3599) • CO2 incubator (HERA-CELL-240) • 20×SSC (Bio-serve Co. Ltd) • Tris-HCl (Aldirch-154563-1KG) • NaOH (Sinopharm 10019718) • NaCl (Sinopharm 10019308) • Hybridization solution (Major BioTech Co. Ltd, IMMUNE GOLD-HYB-500) • DIG Wash and Block Buffer set (Roche-11585762001) • Anti-digoxigenin-AP, Fab fragments from sheep (Roche-11093274910) • 2.3 Materials and Instruments: • Positively-Charged Nylon Membrane (GE-RPN2250B) • Transfer Membrane Instrument (Bio-Rad, 170-6545) • Hybridization Oven (HL-2000 Hybrilinker) • 3. Testing steps and Methods: • 3.1 HepG2.2.15 cells (4×10^4 cells/well) were planted into a 96-well plate, and at 37° C., 5% CO2 cultured overnight. • 3.2 On Day 2, the compounds were diluted in totally 6 concentrations with a dilution gradient of five times. The compounds at different concentrations were added into the culture wells in duplicate. The final concentration of DMSO in the culture media was 1%. 1 μM GLS4 was used as 100% inhibition control; 1% DMSO as 0% inhibition control. • 3.3 On Day 5, replacing with the fresh culture media containing the compound was performed. • 3.4 On Day 8 and Day 9, the culture media in the culture wells was removed, and the cells were harvested for dot-blot hybridization. • The lysate was added into a culture well, and at 37° C. incubating for half an hour to disintegrate cells; the supernatant was obtained by centrifugation and transferred into a new microplate; a denaturation solution was added, after sufficient mixing the denatured sample was transferred and imprinted onto a Nylon membrane, the nucleic acid was fixed onto the membrane by UV cross-linking. • Pre-hybridization: the membrane was incubated at 60° C. in a hybridization solution for 1 hour. • Hybridization: heating the denatured digoxin-labelled HBV DNA probe and incubating at 60° C. overnight. • Membrane Washing: performing high strigency washing twice, low strigency washing for 3 times. • Blocking: incubating the membrane at room temperature in a blocking solution for 30-60 minutes. • Hybridization: diluting the Antibody Solution with the blocking solution, in which the membrane was placed and incubated at room temperature for 30-60 minutes. • Developing: washing the membrane in a Detection Buffer for 5 minutes, followed by adding a developing solution, pressing and exposing. • The photos was saved in tiff format, and a gray value of the dot was quantified with quantity one software. • 3.5 Data Analysis: • 3.5.1 The inhibition percentage was calculated: % Inh.=[1−(sample dot gray value−1 μM GLS4 dot gray value 1)/(DMSO control dot gray value−1 μM GLS4 dot gray value 1)]×100. • 3.5.2 Calculating EC50: the concentration of the compound for 50% inhibition of HBV (EC50) was calculated by using GraphPad Prism Software. • 4.
CCOC(=O)C1=C2CCCN2C(c2nccs2)=NC1c1ccc(F)cc1Cl (racemic) [Example 1] showed an EC50 of 0.1 to 0.5 µM.
CCOC(=O)C1=C2C(N(C)CCO)CCN2C(c2nccs2)=NC1c1ccc(F)cc1Cl (racemic) [Example 2] gave an EC50 of 1 to 5 µM.
In the case of CCOC(=O)C1=C2[C@@H](C(N)=O)CCN2C(c2nccs2)=N[C@H]1c1ccc(F)cc1Cl (racemic) [Example 3], the EC50 is reported as 0.1 to 0.5 µM.
In the case of CCOC(=O)C1=C2CCCN2C(c2nccs2)=NC1c1ccc(F)cc1Br (racemic) [Example 4], the EC50 is reported as 0.1 to 0.5 µM.
CCOC(=O)C1=C2C[C@@H](CO)CN2C(c2nccs2)=NC1c1ccc(F)cc1Br (mixture of isomers) [Example 8] gave an EC50 of 0.1 to 0.5 µM.
COCC1CC2=C(C(=O)OC)C(c3ccc(F)cc3Br)N=C(c3nccs3)N2C1 (racemic) [Example 10] gave an EC50 of 1 to 5 µM.
CCOC(=O)C1=C2C[C@@H](CN3CCOCC3)CN2C(c2nccs2)=NC1c1ccc(F)cc1Br (mixture of isomers) [Example 17] gave an EC50 of 1 to 5 µM.
CCOC(=O)C1=C2CC(C(=O)O)CN2C(c2nccs2)=NC1c1ccc(F)cc1Br (racemic) [Example 23] showed an EC50 of 1 to 5 µM.
CCOC(=O)C1=C2C[C@@H](C(N)=O)CN2C(c2nccs2)=NC1c1ccc(F)cc1Br (mixture of isomers) [Example 28] gave an EC50 of 0.1 to 0.5 µM.
Work on CCOC(=O)C1=C2CC(NC(=O)OC)CN2C(c2nccs2)=N[C@H]1c1ccc(F)cc1Br (mixture of isomers) [Example 42] yielded an EC50 of under 0.1 µM.
Molecule CCOC(=O)C1=C2CC(NC(=O)OC(C)C)CN2C(c2nccs2)=N[C@H]1c1ccc(F)cc1Br (mixture of isomers) [Example 45] has an EC50 of under 0.1 µM.
Molecule CCOC(=O)C1=C2CC(NC(C)=O)CN2C(c2nccs2)=N[C@H]1c1ccc(F)cc1Br (mixture of isomers) [Example 48] has an EC50 of 0.1 to 0.5 µM.
CCOC(=O)C1=C2CC(NC(=O)NC)CN2C(c2nccs2)=N[C@H]1c1ccc(F)cc1Br (mixture of isomers) [Example 51] showed an EC50 of 0.1 to 0.5 µM.
CCOC(=O)C1=C2CC(NS(=O)(=O)NC)CN2C(c2nccs2)=N[C@H]1c1ccc(F)cc1Br (mixture of isomers) [Example 54] gave an EC50 of under 0.1 µM.
Molecule CCOC(=O)C1=C2CC(NS(C)(=O)=O)CN2C(c2nccs2)=N[C@H]1c1ccc(F)cc1Br (mixture of isomers) [Example 57] has an EC50 of under 0.1 µM.
CCOC(=O)C1=C2CC(NS(=O)(=O)C3CC3)CN2C(c2nccs2)=N[C@H]1c1ccc(F)cc1Br (mixture of isomers) [Example 60] gave an EC50 of under 0.1 µM.
For CCOC(=O)C1=C2COC(=O)N2C(c2nccs2)=NC1c1ccc(F)cc1Br (racemic) [Example 67], the EC50 was 0.1 to 0.5 µM.
CCOC(=O)C1=C2CCC(=O)N2C(c2nccs2)=NC1c1ccc(F)cc1Br (racemic) [Example 68] was tested, and the EC50 was 1 to 5 µM.
CCOC(=O)C1=C2CCCN2C(c2nccs2)=NC1c1ccc(F)c(F)c1 (racemic) [Example 69] showed an EC50 of 0.1 to 0.5 µM.
With CCOC(=O)C1=C2CCCN2C(c2nccs2)=NC1c1cccc(F)c1Cl (racemic) [Example 70] the EC50 was 0.1 to 0.5 µM.
CCOC(=O)C1=C2CCCN2C(c2nccs2)=NC1c1ccc(F)cc1C (racemic) [Example 71] gave an EC50 of 0.1 to 0.5 µM.
Work on CCOC(=O)C1=C2CCCN2C(c2nccs2)=NC1c1ccc(F)cc1F (racemic) [Example 72] yielded an EC50 of 0.5 to 1 µM.

Same assay, conditions: Hepatitis B virus, HepG2.2.15, summary list of target compounds, Examples 1-165 (same as Table 2), read-out: BIOACTIVITY (inhibitory actions on HBV DNA, EC50)
With CCOC(=O)C1=C2CCCN2C(c2nccs2)=NC1c1ccc(F)cc1Cl (racemic) [Example 1] the EC50 was 0.1 to 0.5 µM.
With CCOC(=O)C1=C2C(N(C)CCO)CCN2C(c2nccs2)=NC1c1ccc(F)cc1Cl (racemic) [Example 2] the EC50 was 1 to 5 µM.
Molecule CCOC(=O)C1=C2[C@@H](C(N)=O)CCN2C(c2nccs2)=N[C@H]1c1ccc(F)cc1Cl (racemic) [Example 3] has an EC50 of 0.1 to 0.5 µM.
CCOC(=O)C1=C2CCCN2C(c2nccs2)=NC1c1ccc(F)cc1Br (racemic) [Example 4] showed an EC50 of 0.1 to 0.5 µM.
In the case of CCOC(=O)C1=C2C[C@@H](CO)CN2C(c2nccs2)=NC1c1ccc(F)cc1Br (mixture of isomers) [Example 8], the EC50 is reported as 0.1 to 0.5 µM.
COCC1CC2=C(C(=O)OC)C(c3ccc(F)cc3Br)N=C(c3nccs3)N2C1 (racemic) [Example 10] gave an EC50 of 1 to 5 µM.
CCOC(=O)C1=C2C[C@@H](CN3CCOCC3)CN2C(c2nccs2)=NC1c1ccc(F)cc1Br (mixture of isomers) [Example 17] was tested, and the EC50 was 1 to 5 µM.
With CCOC(=O)C1=C2CC(C(=O)O)CN2C(c2nccs2)=NC1c1ccc(F)cc1Br (racemic) [Example 23] the EC50 was 1 to 5 µM.
Work on CCOC(=O)C1=C2C[C@@H](C(N)=O)CN2C(c2nccs2)=NC1c1ccc(F)cc1Br (mixture of isomers) [Example 28] yielded an EC50 of 0.1 to 0.5 µM.
In the case of CCOC(=O)C1=C2CC(NC(=O)OC)CN2C(c2nccs2)=N[C@H]1c1ccc(F)cc1Br (mixture of isomers) [Example 42], the EC50 is reported as under 0.1 µM.
CCOC(=O)C1=C2CC(NC(=O)OC(C)C)CN2C(c2nccs2)=N[C@H]1c1ccc(F)cc1Br (mixture of isomers) [Example 45] showed an EC50 of under 0.1 µM.
For CCOC(=O)C1=C2CC(NC(C)=O)CN2C(c2nccs2)=N[C@H]1c1ccc(F)cc1Br (mixture of isomers) [Example 48], the EC50 was 0.1 to 0.5 µM.
In the case of CCOC(=O)C1=C2CC(NC(=O)NC)CN2C(c2nccs2)=N[C@H]1c1ccc(F)cc1Br (mixture of isomers) [Example 51], the EC50 is reported as 0.1 to 0.5 µM.
With CCOC(=O)C1=C2CC(NS(=O)(=O)NC)CN2C(c2nccs2)=N[C@H]1c1ccc(F)cc1Br (mixture of isomers) [Example 54] the EC50 was under 0.1 µM.
For CCOC(=O)C1=C2CC(NS(C)(=O)=O)CN2C(c2nccs2)=N[C@H]1c1ccc(F)cc1Br (mixture of isomers) [Example 57], the EC50 was under 0.1 µM.
CCOC(=O)C1=C2CC(NS(=O)(=O)C3CC3)CN2C(c2nccs2)=N[C@H]1c1ccc(F)cc1Br (mixture of isomers) [Example 60] gave an EC50 of under 0.1 µM.
CCOC(=O)C1=C2COC(=O)N2C(c2nccs2)=NC1c1ccc(F)cc1Br (racemic) [Example 67] gave an EC50 of 0.1 to 0.5 µM.
For CCOC(=O)C1=C2CCC(=O)N2C(c2nccs2)=NC1c1ccc(F)cc1Br (racemic) [Example 68], the EC50 was 1 to 5 µM.
CCOC(=O)C1=C2CCCN2C(c2nccs2)=NC1c1ccc(F)c(F)c1 (racemic) [Example 69] gave an EC50 of 0.1 to 0.5 µM.
CCOC(=O)C1=C2CCCN2C(c2nccs2)=NC1c1cccc(F)c1Cl (racemic) [Example 70] showed an EC50 of 0.1 to 0.5 µM.
With CCOC(=O)C1=C2CCCN2C(c2nccs2)=NC1c1ccc(F)cc1C (racemic) [Example 71] the EC50 was 0.1 to 0.5 µM.
CCOC(=O)C1=C2CCCN2C(c2nccs2)=NC1c1ccc(F)cc1F (racemic) [Example 72] was tested, and the EC50 was 0.5 to 1 µM.
